Source: US20240207265A1, “TREATMENT OF CNS DISEASES WITH sGC STIMULATORS” (Tisento Therapeutics Inc., priority 2021, published 2024)

Columns and labels:
[1] = tested on: cAMP response element-binding protein (CREB); assay: sGC stimulator induced phosphorylation of CREB in rat primary neurons; format: cell-based; conditions: Primary neuron, 10 μM DETA-NONOate, free acid, geometrical mean, read-out: pCREB EC50
Experimental: Neurons were isolated from Sprague Dawley rat embryos on embryonic day 18 (E18). Approximately 10 embryos were obtained from each rat, and whole brains were isolated from the embryos. Hippocampus and cortex were dissected from the brains under a stereoscopic microscope using two fine tweezers. The meninges were carefully removed. After dissection, the tissues were chopped and washed gently once with 10 mL of Ca^2+ and Mg^2+ free Hank's balanced salt solution (HBSS, Corning cat #21-022-CM) in a 15-mL conical tube. After washing, 5 mL of a solution of 0.25% trypsin (Invitrogen cat #15090-046) and 0.1% deoxyribonuclease I (DNase I, Sigma cat #DN-25) were added to the tissues, then incubated at 37° C. for 15 min. Next, tissues were washed 3 times with ice-cold HBSS, 3 mL of a solution of 0.1% of DNase I was added, then tissues were slowly pipetted 12 times using a glass Pasteur pipette, followed by centrifugation at 500×g for 10 min. […]
For each test concentration, the compound was diluted in 100% DMSO to 100× its final assay concentration. […] Medium was removed, cells were lysed and levels of pCREB was determined according to Cisbio protocols (phospho-CREB (Ser133) catalog #64CREPEG). Plates were read using Envision instrument (PerkinElmer).
pCREB was determined for each well and analyzed with a […] (log(agonist) vs. response-variable slope) using GraphPad Prism Software v.8. […]

[2] = Non-human primate CSF pharmacokinetics (Study A); format: in vivo, Cynomolgus monkeys; conditions: female, cynomolgus monkey, NHP CSF (cisterna magna)/unbound plasma, sodium salt
Experimental: PK in NHP was determined following oral dosing (PO). A group of 4 female Cynomolgus monkeys were used for studying each compound. Compound I-20 sodium salt was formulated as a 0.06 mg/mL solution in MilliQ water. Compound I-14 sodium salt was formulated as 0.2 mg/mL solution in MilliQ water. Formulations were shipped frozen on dry ice and then thawed and mixed thoroughly prior to dosing. PO doses of 1 mg/kg for Compound I-14 and 0.3 mg/kg for Compound I-20 were administered by oral gavage.
Plasma and CSF samples were collected as follows: samples of CSF were collected at 3 and 24 hours post PO dosing. CSF samples (0.125 mL) were collected at the cisterna magna via direct needle puncture by direct dilution. Blood samples (0.8 mL) were collected from a peripheral vein at 0, 0.25, 0.5, 1, 2, 3, 6, 8, […], 24, 32 and 48 or 72 hours. These samples were kept on ice until processed for plasma. Blood samples were protein precipitated using acetonitrile. Plasma was directly transferred to individual tubes (0.125 mL) and K2EDTA was used as the anticoagulant. Plug caps were placed on the tubes and the tubes frozen at approximately −70° C. and stored until analysis. Plasma and CSF was collected and analyzed for the presence of compound.
Plasma and CSF samples were analyzed using liquid chromatography (LC) with tandem mass spectrometric detection (MS/MS) using positive electrospray ionization. The standard curve range was from 0.1 to 1000 ng/mL.
The geometrical means for the values obtained for the 4 animals in each compound's study was obtained for concentrations in CSF and in Plasma, respectively.
Kp,uu is defined as the concentration ratio of unbound drug in CSF to unbound drug in plasma. Unbound drug in plasma (or free plasma concentration) is calculated by multiplying the total plasma concentration by the unbound fraction as determined by plasma protein binding. The CSF concentration is then divided by the free plasma concentration to determine the Kp,uu. (See e.g., Di et al., J. Med. Chem., 56, 2-12 (2013))

[3] = Non-human primate CSF pharmacokinetics (Study B), cisterna magna versus lumbar sampling; format: in vivo, cynomolgus monkeys
Experimental: The objective of this study was to investigate the pharmacokinetics of Compound I-14 after administration of a single […] bolus or oral gavage dose to cynomolgus monkeys on Day 1 and to evaluate differences in pharmacokinetic values when comparing CSF collected at the cisterna magna (as in Example 10A) versus lumbar locations.
Single doses of Compound I-14 were administered intravenously as a bolus injection of a solution at 0.15 mg/kg and orally by gavage as a suspension at 0.5 mg/kg to a group of four female cynomolgus monkeys in a crossover design. Plasma samples were collected at 0.25 (15 min), 0.5 (30 min), 1, 2, 3, 6, 8, 12, 24, 32, and 48 h following the IV and PO doses. CSF samples were collected at 3 and 24 h for all animals from the cisterna magna in groups 1 and 2 and the lumbar from groups 3 and 4. Sample extracts were prepared by protein precipitation and Compound I-14 concentrations were measured using LC-MS/MS. Pharmacokinetic parameters were calculated.

With `Cc1cc(F)c(Cc2nc(-c3ncc(F)c(O)n3)cn3ccnc23)cc1F` [Compound I-14, 5-fluoro-2-(8-(2,5-difluoro-4-methylbenzyl)imidazo[1,2-a]pyrazin-6-yl)pyrimidin-4-ol] the EC50 [1] was 21 nM, the Kp uu at 3 h ([2]; PO 1 mg/kg) was 2 to 3 and the Kp uu at 24 h ([2]; PO 1 mg/kg) was > 3. The “geomean ratio of CSF concentration to unbound concentration in plasma” value ([3]; 3 hours, IV dosing, cisterna magna sampling) was “C (2<Kp,uu≤3=C)”, the “geomean ratio of CSF concentration to unbound concentration in plasma” value ([3]; 3 hours, IV dosing, lumbar sampling) was “C (2<Kp,uu≤3=C)” and the “geomean ratio of CSF concentration to unbound concentration in plasma” value ([3]; 3 hours, oral dosing, cisterna magna sampling) was “C (2<Kp,uu≤3=C)”. The “geomean ratio of CSF concentration to unbound concentration in plasma” value ([3]; 3 hours, oral dosing, lumbar sampling) was “C (2<Kp,uu≤3=C)”, the “geomean ratio of CSF concentration to unbound concentration in plasma” value ([3]; 24 hours, IV dosing, cisterna magna sampling) was “B (1<Kp,uu≤2=B)” and the “geomean ratio of CSF concentration to unbound concentration in plasma” value ([3]; 24 hours, IV dosing, lumbar sampling) was “B (1<Kp,uu≤2=B)”. The “geomean ratio of CSF concentration to unbound concentration in plasma” value ([3]; 24 hours, oral dosing, cisterna magna sampling) was “C (2<Kp,uu≤3=C)” and the “geomean ratio of CSF concentration to unbound concentration in plasma” value ([3]; 24 hours, oral dosing, lumbar sampling) was “C (2<Kp,uu≤3=C)”.

With `Oc1nc(-c2cn3ccnc3c(Cc3cc(F)ccc3F)n2)ncc1F` [Compound I-20, 5-fluoro-2-(8-(2,5-difluorobenzyl)imidazo[1,2-a]pyrazin-6-yl)pyrimidin-4-ol] the EC50 [1] was 13 nM, the Kp uu at 3 h ([2]; PO 0.3 mg/kg) was ≤ 1 and the Kp uu at 24 h ([2]; PO 0.3 mg/kg) was 1 to 2.
